Assay results from patent publication US6716878B1, “Antimicrobial agents” (Vernalis (Oxford) Limited, priority 1999, dated 2004).
In brackets after ≈: the same amount, converted by molar mass. Read-outs that look alike come from different tables or passages of the source.

Tests used:
[1] = test system: E. coli strain DH5α; experiment: Minimal inhibitory concentration (MIC) against E. coli, two fold serial dilutions in 2xYT broth; type: cell-based; settings: Escherichia coli, read-out: MIC (E. coli)
Method: (§1) Where MIC values are quoted for the compounds of the examples, those results were obtained by the method described in the Biological Example.
(§2) Minimal inhibitory concentrations (MIC) of inhibitors against E. coli strain DH5α (Genotype; F-φ80d/acZΔM 15Δ(lacZYA-argF)U 169 deoR recA1 endA1 hsdR17(rk^−, mk^+)phoA supE44λ^−thi-1 gyrA96 re/A1) obtained from GibcoBRL Life Technologies, or Staphylococcus capitis (American Type Culture Collection number 35661) were determined as follows. Stock solutions of each test compound were prepared by dissolution of the compound in dimethylsulfoxide at 10 mM. For the determination of the minimal inhibitory concentration, two fold serial dilutions were prepared in 2×YT broth (typtone 16 g/l, yeast extract 10 g/l, sodium chloride 5 g/l obtained from BIO 101 Inc, 1070 Joshua Way, Vista, Calif. 92083, USA) to yield 0.05 ml compound-containing medium per well. Inocula were prepared from cultures grown overnight in 2×YT broth at 37° C. Cell densities were adjusted to absorbance at 660 nm (a660)=0.1; the optical density-standardised preparations were diluted 1:1000 in 2×YT broth; and each well inoculated with 0.05 ml of the diluted bacteria. Microtiter plates were incubated at 37° C. for 18 hours in a humidified incubator. The MIC (μM) was recorded as the lowest drug concentration that inhibited visible growth.

[2] = test system: Staphylococcus capitis (American Type Culture Collection number 35661); experiment: Minimal inhibitory concentration (MIC) against Staphylococcus capitis, two fold serial dilutions in 2xYT broth; type: cell-based; settings: ATCC35661, Staphylococcus capitis ATCC 35661, 37° C., 18 hours, lowest drug concentration that inhibited visible growth, read-out: MIC (S. capitis)
Method: as §1, §2

[3] = E. coli strain DH5α, 2xYT broth, 37° C., 18 hours, lowest drug concentration that inhibited visible growth

CCCC[C@H](CN(O)C=O)C(=O)N[C@H](C(=O)c1ccc(N(CCC)CCC)cc1)C(C)(C)C [Example 30, 2(R)-[(N-Formyl-N-hydroxyamino)-methyl]-hexanoic Acid-(1′(S)-(4-dipropylaminobenzoyl)-2′,2′-dimethylpropyl)amide] was tested, and the MIC [1, 3] was 100 µM (≈ 46.2 µg/mL) and the MIC [2] was 3.1 µM (≈ 1.43 µg/mL).

CCCC[C@H](CN(O)C=O)C(=O)N[C@H](C(=O)c1ccc(N2CCNCC2)cc1)C(C)(C)C [Example 26, 2(R)-[(N-Formyl-N-hydroxyamino)-methyl]-hexanoic Acid-(2′,2′-dimethyl-1′(S)-(4-piperazin-1-yl-benzoyl)-propyl)amide] gave an MIC [1, 3] of 3.1 µM (≈ 1.38 µg/mL) and an MIC [2] of 12.5 µM (≈ 5.58 µg/mL).

In the case of CC(C)(C)[C@H](NC(=O)[C@H](CC1CCCC1)CN(O)C=O)C(=O)c1ccc(F)cc1 [Example 4, 3-Cyclopentyl-2(R)-[(N-formyl-N-hydroxyamino)-methyl]-N-[1′(S)-(4-fluorobenzoyl)-2′,2′-dimethylpropyl]propionamide], the MIC [1, 3] is reported as 3.1 µM (≈ 1.26 µg/mL) and the MIC [2] is reported as 3.1 µM (≈ 1.26 µg/mL).

With CC(C)(C)[C@H](NC(=O)[C@H](CC1CCCC1)CN(O)C=O)C(=O)c1cc2ccccc2o1 [Example 9, N-[1(S)-(Benzofuran-2-carbonyl)-2,2-dimethylpropyl]-3′-cyclopentyl-2′(R)-[(N-formyl-N-hydroxyamino)-methyl]-propionamide] the MIC [1, 3] was 6.25 µM (≈ 2.68 µg/mL) and the MIC [2] was 0.7 µM (≈ 0.3 µg/mL).

With CCCC[C@H](CN(O)C=O)C(=O)N[C@H](C(=O)c1ccc(NC(C)=O)cc1)C(C)(C)C [Example 22, 2(R)-[(N-Formyl-N-hydroxyamino)-methyl]-hexanoic Acid-(1′(S)-(4-acetylaminobenzoyl)-2′,2′-dimethylpropyl)amide] the MIC [1, 3] was 12.5 µM (≈ 5.24 µg/mL) and the MIC [2] was 3.1 µM (≈ 1.3 µg/mL).

With COc1ccc(C(=O)[C@@H](NC(=O)[C@H](CC2CCCC2)CN(O)C=O)C(C)(C)C)cc1 [Example 5, 3-Cyclopentyl-2(R)-[(N-formyl-N-hydroxyamino)-methyl]-N-[1′(S)-(4-methoxybenzoyl)-2′,2′-dimethylpropyl]propionamide] the MIC [1, 3] was 3.1 µM (≈ 1.3 µg/mL) and the MIC [2] was 1.6 µM (≈ 0.67 µg/mL).

CCCC[C@H](CN(O)C=O)C(=O)N[C@H](C(=O)c1cccn1C)C(C)(C)C [Example 19, 2(R)-[(N-Formyl-N-hydroxyamino)-methyl]-hexanoic Acid-(2′,2′-dimethyl-1′(S)-(1-methyl-1H-pyrrole-2-carbonyl)-propyl)amide] showed an MIC [1, 3] of 12.5 µM (≈ 4.57 µg/mL) and an MIC [2] of 12.5 µM (≈ 4.57 µg/mL).

For CCCC[C@H](CN(O)C=O)C(=O)N[C@H](C(=O)c1ccc(N2CCN(c3ncccn3)CC2)cc1)C(C)(C)C [Example 28, 2(R)-[(N-Formyl-N-hydroxyamino)-methyl]-hexanoic Acid-(2′,2′-dimethyl-1′(S)-[4-(4-pyrimidin-2-yl-piperazin-1-yl)-benzoyl]-propyl)amide], the MIC [1, 3] was 12.5 µM (≈ 6.56 µg/mL) and the MIC [2] was 1.6 µM (≈ 0.839 µg/mL).

Work on CCCC[C@H](CN(O)C=O)C(=O)N[C@H](C(=O)c1ccc(NC(=O)C(F)(F)F)cc1)C(C)(C)C [Example 21, 2(R)-[(N-Formyl-N-hydroxyamino)-methyl]-hexanoic Acid-(2′,2′-dimethyl-1′(S)-[4-(2,2,2-trifluoroacetylamino)-benzoyl]-propyl)amide] yielded an MIC ([1]; 18 h) of 6.25 µM (≈ 2.96 µg/mL) and an MIC [2] of 6.25 µM (≈ 2.96 µg/mL).

CCCC[C@H](CN(O)C=O)C(=O)N[C@H](C(=O)c1ccc(N)cc1)C(C)(C)C [Example 20, 2(R)-[(N-Formyl-N-hydroxyamino)-methyl]-hexanoic Acid-(1′(S)-(4-aminobenzoyl)-2′,2′-dimethylpropyl)amide] was tested, and the MIC [1, 3] was 6.25 µM (≈ 2.36 µg/mL) and the MIC [2] was 12.5 µM (≈ 4.72 µg/mL).

CCCC[C@H](CN(O)C=O)C(=O)N[C@H](C(=O)C1CCCCC1)C(C)C [Example 3, 2(R)-[(N-Formyl-N-hydroxyamino)-methyl]-hexanoic Acid-(1′(S)-cyclohexanecarbonyl-2′-methylpropyl)amide] gave an MIC [1, 3] of 50 µM (≈ 17.7 µg/mL) and an MIC [2] of 25 µM (≈ 8.86 µg/mL).

CCCC[C@H](CN(O)C=O)C(=O)N[C@H](C(=O)c1ccc(NCCC)cc1)C(C)(C)C [Example 31, 2(R)-[(N-Formyl-N-hydroxyamino)-methyl]-hexanoic Acid-(2′,2′-dimethyl-1′(S)-(4-propylaminobenzoyl)-propyl)amide] gave an MIC [1, 3] of 12.5 µM (≈ 5.24 µg/mL) and an MIC [2] of 3.1 µM (≈ 1.3 µg/mL).

CCCC[C@H](CN(O)C=O)C(=O)N[C@H](C(=O)c1ccc(NS(C)(=O)=O)cc1)C(C)(C)C [Example 23, 2(R)-[(N-Formyl-N-hydroxyamino)-methyl]-hexanoic Acid-(1′(S)-(4-methanesulfonylaminobenzoyl)-2′,2′-dimethylpropyl)amide] gave an MIC [1, 3] of 50 µM (≈ 22.8 µg/mL) and an MIC [2] of 3.1 µM (≈ 1.41 µg/mL).

For CCCC[C@H](CN(O)C=O)C(=O)N[C@H](C(=O)c1ccco1)C(C)(C)C [Example 18, 2(R)-[(N-Formyl-N-hydroxyamino)-methyl]-hexanoic Acid-(1′(S)-(furan-2-carbonyl)-2′,2′-dimethylpropyl)amide], the MIC [1, 3] was 12.5 µM (≈ 4.41 µg/mL) and the MIC [2] was 12.5 µM (≈ 4.41 µg/mL).

For CCCC[C@H](CN(O)C=O)C(=O)N[C@H](C(=O)c1ccc(N2CCN(C)CC2)cc1)C(C)(C)C [Example 27, 2(R)-[(N-Formyl-N-hydroxyamino)-methyl]-hexanoic Acid-(2′,2′-dimethyl-1′(S)-[4-(4-methylpiperazin-1-yl)benzoyl]-propyl)amide], the MIC [1, 3] was 6.25 µM (≈ 2.88 µg/mL) and the MIC [2] was 6.25 µM (≈ 2.88 µg/mL).

For CCCC[C@H](CN(O)C=O)C(=O)N[C@H](C(=O)c1ccc(N2CCN(Cc3ccccc3)CC2)cc1)C(C)(C)C [Example 25, 2(R)-[(N-Formyl-N-hydroxyamino)-methyl]-hexanoic Acid-(1′(S)-[4-(4-benzylpiperazin-1-yl)-benzoyl]-2′,2′-dimethylpropyl)amide], the MIC [1, 3] was 50 µM (≈ 26.8 µg/mL) and the MIC [2] was 3.1 µM (≈ 1.66 µg/mL).

In the case of CCCC[C@H](CN(O)C=O)C(=O)N[C@H](C(=O)c1ccc(S(C)(=O)=O)cc1)C(C)(C)C [Example 16, 2(R)-[(N-Formyl-N-hydroxyamino)-methyl]-hexanoic Acid [1′(S)-(4-methanesulfonyl-benzoyl)-2′,2′-dimethyl-propyl]amide], the MIC [1, 3] is reported as 6.25 µM (≈ 2.75 µg/mL) and the MIC [2] is reported as 25 µM (≈ 11 µg/mL).

Work on CCCC[C@H](CN(O)C=O)C(=O)N[C@H](C(=O)c1ccc(O)cc1)C(C)(C)C [Example 12, 2(R)-[(N-Formyl-N-hydroxyamino)-methyl]-hexanoic Acid [1′(S)-(4-hydroxy-benzoyl)-2′,2′-dimethylpropyl]-amide] yielded an MIC [1, 3] of 6.25 µM (≈ 2.37 µg/mL) and an MIC [2] of 12 µM (≈ 4.54 µg/mL).

Compound CCCC[C@H](CN(O)C=O)C(=O)N[C@H](C(=O)c1ccc(OC)cc1OC)C(C)(C)C [Example 11, 2(R)-[(N-Formyl-N-hydroxyamino)-methyl]-hexanoic Acid [1′-(2,4-dimethoxy-benzoyl)-2′,2′-dimethylpropyl]-amide] has an MIC [1, 3] of 25 µM (≈ 10.6 µg/mL) and an MIC [2] of 25 µM (≈ 10.6 µg/mL).

In the case of CCCC[C@H](CN(O)C=O)C(=O)N[C@H](C(=O)c1ccc(F)cc1)C(C)(C)C [Example 1, 2(R)-[(N-Formyl-N-hydroxyamino)-methyl]-hexanoic Acid-(1′(S)-(4-fluorobenzoyl)-2′,2′-dimethylpropyl)amide], the MIC [1, 3] is reported as 12.5 µM (≈ 4.76 µg/mL) and the MIC [2] is reported as 25 µM (≈ 9.51 µg/mL).

In the case of CCCC[C@H](CN(O)C=O)C(=O)N[C@H](C(=O)c1nccn1C)C(C)(C)C [Example 6, 2(R)-[(N-Formyl-N-hydroxyamino)-methyl]-hexanoic Acid-[2,2-dimethyl-1(S)(1-methyl-1H-imidazole-2-carbonyl)-propyl]-amide], the MIC [1, 3] is reported as 25 µM (≈ 9.16 µg/mL) and the MIC [2] is reported as 200 µM (≈ 73.3 µg/mL).

CCCC[C@H](CN(O)C=O)C(=O)N[C@H](C(=O)c1ccc(OC)cc1)C(C)(C)C [Example 2] was tested, and the MIC [1, 3] was 12.5 µM (≈ 4.91 µg/mL) and the MIC [2] was 6.25 µM (≈ 2.45 µg/mL).

CCCC[C@H](CN(O)C=O)C(=O)N[C@H](C(=O)c1ccccn1)C(C)(C)C [Example 7, 2(R)-[(N-Formyl-N-hydroxyamino)-methyl]-hexanoic Acid-[2,2-dimethyl-1(S)-(pyridine-2-carbonyl)-propyl]-amide] was tested, and the MIC [1, 3] was 12.5 µM (≈ 4.54 µg/mL) and the MIC [2] was 50 µM (≈ 18.2 µg/mL).

With CCCC[C@H](CN(O)C=O)C(=O)N[C@H](C(=O)c1ccc(N2CCOCC2)cc1)C(C)(C)C [Example 24, 2(R)-[(N-Formyl-N-hydroxyamino)-methyl]-hexanoic Acid-(2′,2′-dimethyl-1′(S)-(4-morpholin-4-ylbenzoyl)-propyl)amide] the MIC [1, 3] was 6.25 µM (≈ 2.8 µg/mL) and the MIC [2] was 3.1 µM (≈ 1.39 µg/mL).

Compound COc1ccc(C(=O)[C@H](NC(=O)[C@@H](CC2CCCC2)CN(O)C=O)C(C)(C)C)cc1 [Example 17, 3-Cyclopentyl-2(S)-[(N-formyl-N-hydroxyamino)-methyl]-N-[1′(R)-(4-methoxybenzoyl)-2′,2′-dimethylpropyl]propionamide] has an MIC [1, 3] of 100 µM (≈ 41.9 µg/mL) and an MIC [2] of 25 µM (≈ 10.5 µg/mL).

CCCC[C@H](CN(O)C=O)C(=O)N[C@H](C(=O)c1ccc(N2CCN(C3=NCCCN3)CC2)cc1)C(C)(C)C [Example 29, 2(R)-[(N-Formyl-N-hydroxyamino)-methyl]-hexanoic Acid-(2′,2′-dimethyl-1′(S)-{4-[4-(1,4,5,6-tetrahydropyrimidin-2-yl)-piperazin-1-yl]-benzoyl}-propyl)amide] showed an MIC [1, 3] of 50 µM (≈ 26.4 µg/mL) and an MIC [2] of 6.25 µM (≈ 3.3 µg/mL).

CCCC[C@H](CN(O)C=O)C(=O)N[C@H](C(=O)Cc1ccccn1)C(C)(C)C [Example 15, 2(R)-[(N-Formyl-N-hydroxyamino)-methyl]-hexanoic Acid-(1′(S)-tert-butyl-2′-oxo-3′-pyridin-2-yl-propyl) Amide] was tested, and the MIC [2] was 100 µM (≈ 37.7 µg/mL).
